Laboratory results taken from US20030235873A1, “Process for detecting enzyme activity in an immunoassay” (priority 2000, published 2003).
*1 amine or outer side, *2 acyl side, *3 side chain or, on linkers, in order; H or OH if unused. Where a SMILES comes first, the peptide text is derived from it. Bridges are numbered along the chain shown (N, C = ends). Where no end group is shown, it is not given here. [ ]: non-standard residue; d: D form. Adda = CO[C@@H](Cc1ccccc1)[C@@H](C)/C=C(C)/C=C/[C@H](N[*:1])[C@H](C)C(=O)[*:2]; dAsp(3S-Me) = C[C@H](C(=O)[*:3])[C@@H](N[*:1])C(=O)[*:2]; d(γGlu) = O=C(O)[C@@H](CCC(=O)[*:2])N[*:1]; pY = N[C@@H](Cc1ccc(OP(=O)(O)O)cc1)C(=O)O; pT = C[C@@H](OP(=O)(O)O)[C@H](N)C(=O)O; NMeDha = C=C(NC)C(=O)O

Experiments:
[1] = test system: polyclonal anti active JNK antibody #9251 (New England Biolabs NEB #9251); experiment: Fluorescence polarization binding of TAMRA-labelled JNK active-site peptides to anti-active JNK antibody; settings: peptide at 5 nM
Description: This polyclonal antibody detects all three isoforms of the SAPK1/JNK proteins only when they are activated by dual phosphorylation at threonine183/tyrosinel85. Binding of poly-clonal anti active JNK antibody #9251 (concentration: 0.02 mg/ml, equiv. 130 nM) to TAMRA-labelled P1*° peptide (at 5 nM) was measured at different antibody concentrations by fluorescence polarization. As a control, no binding of the antibody to the monophosphorylated TAMRA-P1° peptide (at 5 nM) is detected.
The results of this experiment are illustrated in FIG. 4. […] The polarization values dramatically increase when using the double-phosphorylated TAMRA-P1*° peptide in contrast to mono-phosphorylated labelled TAMRA-P1° peptide (sequences see below).

PP2A phosphatase = target: T1, PP2A phosphatase (Homo sapiens, UniProt P67775); experiment: Direct phosphatase assay: inhibition of PP2A-dependent dephosphorylation of TAMRA-P1°* peptide (fluorescence polarization read-out); format: biochemical
T1 construct: purchased Upstate Biotech 14-111 (lot no. 20574)
T1 sequence (P30153 2-589): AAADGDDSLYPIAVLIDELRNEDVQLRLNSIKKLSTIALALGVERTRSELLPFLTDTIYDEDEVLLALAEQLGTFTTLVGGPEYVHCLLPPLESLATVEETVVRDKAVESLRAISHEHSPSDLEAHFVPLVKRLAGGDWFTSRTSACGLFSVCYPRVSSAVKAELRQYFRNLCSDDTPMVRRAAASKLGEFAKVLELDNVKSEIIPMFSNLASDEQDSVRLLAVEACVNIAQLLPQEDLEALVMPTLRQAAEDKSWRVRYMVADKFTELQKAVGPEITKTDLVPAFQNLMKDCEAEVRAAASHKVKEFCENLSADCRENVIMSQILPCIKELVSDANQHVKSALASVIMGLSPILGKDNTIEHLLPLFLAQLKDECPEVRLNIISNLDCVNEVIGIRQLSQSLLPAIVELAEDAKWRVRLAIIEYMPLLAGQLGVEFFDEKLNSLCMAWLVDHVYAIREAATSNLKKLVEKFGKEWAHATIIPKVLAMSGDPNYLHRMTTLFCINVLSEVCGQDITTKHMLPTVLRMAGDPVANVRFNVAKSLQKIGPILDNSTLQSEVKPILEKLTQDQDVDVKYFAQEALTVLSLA
T1 sequence (P67775 whole entry): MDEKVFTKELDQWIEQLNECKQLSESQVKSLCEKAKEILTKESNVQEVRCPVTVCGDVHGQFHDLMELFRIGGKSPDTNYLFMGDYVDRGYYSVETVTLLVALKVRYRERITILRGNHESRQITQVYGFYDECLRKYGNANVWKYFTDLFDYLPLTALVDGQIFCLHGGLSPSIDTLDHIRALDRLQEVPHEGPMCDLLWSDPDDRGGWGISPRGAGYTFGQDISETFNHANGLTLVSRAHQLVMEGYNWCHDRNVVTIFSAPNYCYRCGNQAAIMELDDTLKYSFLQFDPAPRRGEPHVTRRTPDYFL

[2] = test system: antibody NEB #9251 (polyclonal anti-active JNK antibody); experiment: Fluorescence correlation spectroscopy competition of the NEB #9251 antibody-P1°*-TAMRA complex with non-fluorescent peptides; format: binding; settings: antibody 1:20 diluted, TAMRA-labelled peptide P1*° 5 nM
[3] = test system: ac(K9)-p(S10)-specific antibody from New England Biolabs (#9711); experiment: Binding of TAMRA-labelled histone H3 peptides to ac(K9)-p(S10)-specific antibody; settings: FIG. 15 and 16
Excerpt: (§1) The histone deacetylase assay uses fluorescently-labelled peptides (TAMRA dye as a label) derived from histone H3 sequence. In the assay two different polyclonal antibodies are used which bind specifically to acetylated lysine redidues (ac(K) at positions ac(K9) or […]). Acetylation of a single lysine results in a relative small change of the molecular structure of the aminoacid side chain. The resulting change in the binding affinity to acetyl-specific antibodies is in general difficult to detect in a homogeneous binding assay. According to the invention, therefore an additional modification (phosphorylation of serine at position (S10)) was included within the H3-peptide sequence to enhance the affinity of the peptides to the applied antibodies. From the results of three independing binding experiments (FIGS. 15-17) it is evident that dual-modified peptide conjugates confer a higher affinity for the applied antibodies when compared to mono-modified peptide conjugates. This characteristic is of great value to measure the different acetylation states of lysine residues using acetyl-specific antibodies. In principle, the described binding assay can be applied both for the detection of acetyltransferase or deacetylase activity, in particular histone acetyltransferase/deacetylase.

[4] = test system: p(S10)-ac(K14)-specific antibody from Upstate Biotech (#07-081); experiment: Binding of TAMRA-labelled histone H3 peptides to p(S10)-ac(K14)-specific antibody; settings: FIG. 17
Excerpt: as §1

Molecule: 5-TAMRA-AEEA-Lys-Phe-Met-Met-Thr-Pro-pTyr-Val-Val-Thr-Arg-NH2 (chain 1 KFMMTP; chain 2 YVVTR; not fully specified; 5-TAMRA-AEEA, phospho residue, C-terminal amide; printed: Lys-Phe-Met-Met-Thr-Pro-; printed: Tyr-Val-Val-Thr-Arg-) [TAMRA-P1°]
- Binding of the antibody to the peptide ([1]; control): no binding

Molecule: 5-TAMRA-AEEA-Lys-Phe-Met-Met-pThr-Pro-pTyr-Val-Val-Thr-Arg-NH2 (chain 1 KFMM; chain 2 YVVTR; not fully specified; 5-TAMRA-AEEA, pThr-Pro, phospho, C-terminal amide; printed: Lys-Phe-Met-Met-; printed: Tyr-Val-Val-Thr-Arg-) [P1*°-TAMRA]
- Kd ([1]; different antibody concentrations, read-out: Affinity of polyclonal anti-active-JNK antibody for peptide (KD)): 2.6 nM

Molecule: C=C1C(=O)N[C@H](C)C(=O)N[C@@H](CC(C)C)C(=O)N[C@@H](C(=O)O)[C@H](C)C(=O)N[C@@H](CCCNC(=N)N)C(=O)N[C@@H](/C=C/C(C)=C/[C@H](C)[C@H](Cc2ccccc2)OC)[C@H](C)C(=O)N[C@@H](C(=O)O)CCC(=O)N1C [microcystin-LR] (R[Adda][d(γGlu)][NMeDha][dA]L[dAsp(3S-Me)]-OH; lactam N-7)
- Inhibition of PP2A (PP2A phosphatase): full inhibition

Molecule: C=C1[C@@H](O)[C@@H]2O[C@]3(CC[C@H](/C=C/[C@@H](C)[C@@H]4CC(C)=C[C@@]5(O[C@H](C[C@@](C)(O)C(=O)O)CC[C@H]5O)O4)O3)CC[C@H]2O[C@@H]1[C@@H](O)C[C@H](C)[C@H]1O[C@@]2(CCCCO2)CC[C@H]1C [ocadaic acid]
- IC50 (PP2A phosphatase; PP2A 0.003 units, P1°*-TAMRA peptide 10 nM, 30° C., read-out: IC50 (half-maximal inhibitory concentration, PP2A-dependent dephosphorylation of TAMRA-P1°* peptide)): 0.3 nM

Molecule: H-KFMM[pT]P[pY]VVTR-NH2 [P1*°]
- Competition with TAMRA-labelled peptide P1*° for binding to the antibody [2]: able to compete effectively
- IC50 ([2]; read-out: IC50 (competition of antibody binding to TAMRA-labelled peptide P1*°)): 5 nM

Molecule: H-Lys-Phe-Met-Met-Thr-Pro-pTyr-Val-Val-Thr-Arg-NH2 (chain 1 H-KFMMTP; chain 2 [pY]VVTR-NH2; not fully specified (C-terminus); also: chains 1 and 2 are one peptide continuing through pTyr) [P1°, monophosphorylated control peptide]
- Competition with TAMRA-labelled peptide P1*° for binding to the antibody [2]: did note compete effectively

Molecule: H-Lys-Phe-Met-Met-pThr-Pro-Tyr-Val-Val-Thr-Arg-NH2 (chain 1 H-KFMM; chain 2 [pT]PYVVTR-NH2; not fully specified (C-terminus); also: chains 1 and 2 are one peptide continuing through pThr) [P1*, monophosphorylated control peptide]
- Competition with TAMRA-labelled peptide P1*° for binding to the antibody [2]: did note compete effectively

Molecule: TAMRA-A-R-K-p(S10)-T-T-G-K-A [peptide #13]
- Binding of the ac(K9)-p(S10)-specific antibody to the peptide [3]: only low binding

Molecule: TAMRA-A-R-K-p(S10)-T-T-G-ac(K14)-A-P [peptide #11]
- Binding of the p(S10)-ac(K14)-specific antibody to the peptide [4]: binding
- Binding of the ac(K9)-p(S10)-specific antibody to the peptide [3]: only low binding

Molecule: TAMRA-A-R-ac(K9)-S-T-T-G-K-A [peptide #12]
- Binding of the ac(K9)-p(S10)-specific antibody to the peptide [3]: only low binding

Molecule: TAMRA-A-R-ac(K9)-p(S10)-T-T-G-K-A-P [peptide #10]
- Binding of the p(S10)-ac(K14)-specific antibody to the peptide [4]: only low binding
- Binding of the ac(K9)-p(S10)-specific antibody to the peptide [3]: binding
